Patent US20230286973A1, “PROTEIN SECRETION INHIBITORS” (KEZAR LIFE SCIENCES, priority 2020, published 2023)

What was measured:
[1] = test system: IL-2-FL/Gaussia Luciferase; test: Dox Induced IL2-FL-Gluc Assay; assay type: cell-based; settings: for IC50: 24 hr Dox induction, 293FRT/TO cells, read-out: 24 hr Dox Inducible IL2FLGluc 293FRT/TO: Mean IC50; for 24 hr Dox Inducible IL2FLGluc 293FRT/TO: IL2/PD1: ratio of IL2FLGluc IC50 to PD1ssGluc IC50
Outline: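 Stable Flp-In 293 T-REx cells carrying doxycycline-inducible full-length IL-2 (aa 1-153) fused to Gaussia luciferase, plated the day before assay. Compound dilutions added in medium containing doxycycline, incubated at 37 °C, 5% CO2. Undefined stereocentres mean data refer to stereoisomer mixtures.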

[2] = test system: PD1-ss+10aa/Gaussia Luciferase; test: Dox-Induced PD1-ss-Gluc Assay; assay type: cell-based; settings: 24 hr Dox induction; 293FRT/TO cells; read-out: 24 hr Dox Inducible PD1ssGluc 293FRT/TO: Mean IC50
Outline: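 Compounds were added in DMSO/media with doxycycline and incubated at 37 °C, 5% CO2, on 293 T-REx cells plated one day earlier. These cells stably express, under tetracycline-regulated control, a Gaussia luciferase fused to the PD1 signal peptide plus 10 residues. Structures drawn without stereochemistry were tested as stereoisomer mixtures.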

[3] = test system: TNFα-FL/Gaussia Luciferase; test: Dox Induced TNFα-FL-Gluc Assay; assay type: cell-based; settings: for IC50: 24 hr Dox induction, 293FRT/TO cells, read-out: 24 hr Dox Inducible TNFaFLGluc 293FRT/TO: Mean IC50; for 24 hr Dox Inducible TNFaFLGluc 293FRT/TO: TNF/PD1: ratio of TNFaFLGluc IC50 to PD1ssGluc IC50
Outline: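 Flp-In 293 T-REx cells stably carrying doxycycline-inducible full-length TNFα (aa 1-233) fused to Gaussia luciferase. Plated the day before, then treated with compound dilutions in doxycycline-containing medium at 37° C, 5% CO2.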

[4] = Liver Microsome Stability Assay (rat); settings: rat liver microsomes, with NADPH, 1.0 uM compound
Description: (§1) Stability of a compound was assessed in the presence of liver microsomes from various sources—mouse, rat, monkey and human liver microsomes. 1.0 uM compound, 0.4% DMSO in 0.1 M Potassium Phosphate with 1.0 mg/mL liver microsomes, were incubated at 37° C. with or without 1 mM NADPH. The samples were quenched at 0, and 30 minutes.

[5] = test system: multiple myeloma cell line NCI-H929; test: H929 Cell Viability Assay; assay type: cell-based, human; settings: Homo sapiens, NCI-H929, 48 h, NCI-H929 cells, Celltiter-Glo
Outline: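 NCI-H929 cells in RPMI 1640 with 10% FBS were treated with compound dilutions for 48 h at 37° C, 5% CO2. Viability was read by CellTiter-Glo luminescence. Undefined stereocentres denote stereoisomer mixtures.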

[6] = Liver Microsome Stability Assay (mouse); settings: mouse liver microsomes, with NADPH, 1.0 uM compound
Description: as §1

[7] = Liver Microsome Stability Assay (monkey); settings: monkey liver microsomes, with NADPH, 1.0 uM compound
Description: as §1

[8] = Liver Microsome Stability Assay (human); settings: human liver microsomes, with NADPH, 1.0 uM compound
Description: as §1

[9] = test system: HER3-ss+4aa/Gaussia Luciferase; test: Dox-Induced Her3-ss-Gluc Assay; assay type: cell-based; settings: 24 hr Dox induction; 293FRT/TO cells; read-out: 24 hr Dox Inducible Her3(ss + 4)Gluc 293FRT/TO: Mean IC50
Outline: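 Stable Flp-In 293 T-REx cells carried a doxycycline-inducible HER3 signal sequence (+4 aa) fused to Gaussia luciferase. Cells were plated the day before the assay. Compound dilutions in DMSO/media containing doxycycline were then added, and plates were incubated at 37 °C, 5% CO2.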

[10] = test system: multiple myeloma cell line U266B1; test: U266 Cell Viability Assay; assay type: cell-based, human; settings: Homo sapiens, U-266, 48 h, U266B1 cells, Celltiter-Glo
Outline: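 U266B1 multiple myeloma cells in RPMI 1640/10% FBS were treated with compound dilutions for 48 h at 37 °C, 5% CO2. Viability was measured by CellTiter-Glo luminescence; compounds drawn without stereochemistry were tested as stereoisomer mixtures.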

IC50 [1]	IC50 [2]	IC50 [3]	Liver Microsome Stability (Multiple Species): Rat - % Remaining after 30 min w/NADPH [4]	EC50 [5]	Liver Microsome Stability (Multiple Species): Mouse - % Remaining after 30 min w/NADPH [6]	Liver Microsome Stability (Multiple Species): Monkey - % Remaining after 30 min w/NADPH [7]	Liver Microsome Stability (Multiple Species): Human - % Remaining after 30 min w/NADPH [8]	IC50 [9]	EC50 [10]	Compound	24 hr Dox Inducible IL2FLGluc 293FRT/TO: IL2/PD1 [1]	24 hr Dox Inducible TNFaFLGluc 293FRT/TO: TNF/PD1 [3]
6.36 µM	0.0367 µM	> 25 µM	6.8%	21.3 µM	9.83%	0.85%	0.71%	4.56 µM	> 25 µM	CC1CCCn2cnc(/C=C/c3csc(NC(=O)c4cccn4Cc4ccnc(F)c4)n3)c21 (stereo not drawn) [Compound B102, (E)-1-((2-fluoropyridin-4-yl)methyl)-N-(4-(2-(8-methyl-5,6,7,8-tetrahydroimidazo[1,5-a]pyridin-1-yl)vinyl)thiazol-2-yl)-1H-pyrrole-2-carboxamide]	170	>681
> 25 µM	10.1 µM	> 25 µM	19.5%	> 25 µM	28.7%	1.64%	1.87%	> 25 µM	> 25 µM	CC(C)n1cc(/C=C/c2csc(NC(=O)c3cccn3Cc3ccnc(F)c3)n2)nc1CO [Compound B103, (E)-1-((2-fluoropyridin-4-yl)methyl)-N-(4-(2-(2-(hydroxymethyl)-1-isopropyl-1H-imidazol-4-yl)vinyl)thiazol-2-yl)-1H-pyrrole-2-carboxamide]	>2.5	>2.49
1.28 µM	0.00616 µM	4.99 µM	2.24%	> 25 µM	4.41%	0.14%	0.21%	0.785 µM	> 25 µM	O=C(Nc1nc(/C=C/c2cn(-c3ccccc3)cn2)cs1)c1cccn1Cc1ccnc(F)c1 [Compound B104, (E)-1-((2-fluoropyridin-4-yl)methyl)-N-(4-(2-(1-phenyl-1H-imidazol-4-yl)vinyl)thiazol-2-yl)-1H-pyrrole-2-carboxamide]	210	809
2.84 µM	0.0238 µM	> 25 µM	2.65%	> 25 µM	4.32%	0.05%	0.11%	2.24 µM	> 25 µM	O=C(Nc1nc(/C=C/c2cn(Cc3ccccc3)cn2)cs1)c1cccn1Cc1ccnc(F)c1 [Compound B105, (E)-N-(4-(2-(1-benzyl-1H-imidazol-4-yl)vinyl)thiazol-2-yl)-1-((2-fluoropyridin-4-yl)methyl)-1H-pyrrole-2-carboxamide]	120	>1050
3.01 µM	0.692 µM	> 25 µM	5.01%	> 25 µM	0.95%	0.06%	0.59%	1.28 µM	> 25 µM	CC(C)n1cnc(/C=C/Cc2csc(NC(=O)c3cccn3Cc3ccnc(F)c3)n2)c1 [Compound B106, (E)-1-((2-fluoropyridin-4-yl)methyl)-N-(4-(3-(1-isopropyl-1H-imidazol-4-yl)allyl)thiazol-2-yl)-1H-pyrrole-2-carboxamide]	4.3	>36.1
> 25 µM	0.476 µM	> 25 µM	18.8%	> 25 µM	35.4%	0.33%	0.55%	> 25 µM	> 25 µM	CC(C#N)n1cnc(/C=C/c2csc(NC(=O)c3cccn3Cc3ccnc(F)c3)n2)c1 (stereo not drawn) [Compound B107, (E)-N-(4-(2-(1-(1-cyanoethyl)-1H-imidazol-4-yl)vinyl)thiazol-2-yl)-1-((2-fluoropyridin-4-yl)methyl)-1H-pyrrole-2-carboxamide]	>52	>52.5
> 25 µM	6.04 µM	> 25 µM	23.9%	> 25 µM	55.7%	0.69%	0.43%	> 25 µM	> 25 µM	N#CCCn1cnc(/C=C/c2csc(NC(=O)c3cccn3Cc3ccnc(F)c3)n2)c1 [Compound B108, (E)-N-(4-(2-(1-(2-cyanoethyl)-1H-imidazol-4-yl)vinyl)thiazol-2-yl)-1-((2-fluoropyridin-4-yl)methyl)-1H-pyrrole-2-carboxamide]	>4.1	>4.14
> 25 µM	> 25 µM	> 25 µM	60.4%	> 25 µM	60.2%	5.04%	10.2%	> 25 µM	> 25 µM	NC(=O)CCn1cnc(/C=C/c2csc(NC(=O)c3cccn3Cc3ccnc(F)c3)n2)c1 [Compound B109, (E)-N-(4-(2-(1-(3-amino-3-oxopropyl)-1H-imidazol-4-yl)vinyl)thiazol-2-yl)-1-((2-fluoropyridin-4-yl)methyl)-1H-pyrrole-2-carboxamide]	<=>1.0	<=>1.00
> 25 µM	2.21 µM	> 25 µM	32.4%	> 25 µM	44.9%	0.51%	0.38%	> 25 µM	> 25 µM	CC(CC#N)n1cnc(/C=C/c2csc(NC(=O)c3cccn3Cc3ccnc(F)c3)n2)c1 (stereo not drawn) [Compound B110, (E)-N-(4-(2-(1-(1-cyanopropan-2-yl)-1H-imidazol-4-yl)vinyl)thiazol-2-yl)-1-((2-fluoropyridin-4-yl)methyl)-1H-pyrrole-2-carboxamide]	>11	>11.3
